We go through eight molecules from patent US10376545B2, “Methods for producing hormone secreting cells in a subject” (ViaCyte, Inc., priority 2013, dated 2019).

For assay [1], the system named is INS, GCG, SST, GHRL, PDX1, NKX6.1, NGN3, ID1 expression. The assay can be described thus: Nanostring mRNA analysis of endocrine cell cultures. It counts as cell-based, human. As to conditions: for pancreatic-lineage gene expression: agent at days 30-35 during stage 7, analyzed at d35.
Assay [2] concerns re-aggregated endocrine cell aggregates. The assay can be described thus: Cell-to-cell association of re-aggregated endocrine cell aggregates (stereomicroscope images). The conditions noted are these: 10 μM Y-27632, Matrigel 0.05% v/v. The assay is classed as cell-based, human. As to the method:
In Example 11 above, the cell aggregates were dissociated and re-aggregated or re-associated between stage 6 and 7. Dissociation was performed using Accutase on or around day 20 and re-aggregated in rotation culture, substantially as described in Schulz et al. supra. The re-aggregation removes certain PEC sub-populations including any remaining non-endocrine (CHGA−) sub-populations as well as other non-endocrine cells as described in more detail in Kelly et al. (2011), supra. Endocrine cells have affinity for each other, however, this interaction in vitro is relatively weak, even the re-aggregated cells at stages 6/7 were only loosely associated. So, studies were performed to test various factors and agents for their ability to increase the cell-to-cell interactions within the endocrine cell aggregates.
The combination of Y-27632 and Matrigel increased at least for example the cell-to-cell interaction of the cell aggregates over either component alone.
A differentiated culture produced substantially as described in Example 12, at day 20 was dissociated with Accutase and re-aggregated in db with 5% FBS (lower concentrations of FBS, i.e. 2% or 1% are also effective) and DNAse. Y-27632 was not included in the re-aggregation medium as doing so would result in incorporation of non-endocrine (CHGA−) sub-population as well as other non-endocrine cells into the newly formed aggregates. […]

The subject of assay [3] is hES-derived cell aggregates. The assay can be described thus: Cell aggregate size / cell mass in suspension culture (imaging). The conditions noted are these: 3 days of 50 ng/mL at stage 3 as compared to 2 days. It counts as cell-based, human. As to the method:
Preliminary studies were performed using Heregulin and FGF. In certain of these studies, Rho-kinase inhibitor, Y-27632, was included. […] An increase in cell aggregate size is advantageous in that it results in higher cell mass for later implantation and testing for function in animals.
Various growth factors were explored for their ability to suppress genes such as NGN3 during stages 3 and 4. One candidate growth factor was Activin which has diverse functions in stem cell expansion and differentiation. For example, at low levels (e.g. 10 ng/mL), Activin helps maintain pluripotent stem cell pluripotency and cell proliferation. At higher levels (e.g. 100 ng/mL) Activin acts as a differentiation growth factor responsible for definitive endoderm production at stage 1 (see e.g., Table 8). To test its effect on repressing cells committed to the endocrine lineage (CHGA+) during PEC formation, Applicant first tested Activin at a mid-level concentration of about 50 ng/mL with standard adherent differentiation.
So, Activin levels less than about 25 ng/mL are acceptable for maintaining cell mass and yield. Applicant then performed flow cytometry analysis on these cell cultures to determine whether Activin at low levels during stages 3 and 4 had any effect on cell aggregate composition; see Table 14. […]

Assay [4] concerns PEC derived from hESC. The assay can be described thus: Flow cytometry analysis of PEC derived from hESC (CHGA, NKX6.1, PDX1 sub-populations). It counts as cell-based, human. As for the experimental part: So, Activin levels less than about 25 ng/mL are acceptable for maintaining cell mass and yield. Applicant then performed flow cytometry analysis on these cell cultures to determine whether Activin at low levels during stages 3 and 4 had any effect on cell aggregate composition; see Table 14. […] Advantageously, the PDX1 only and Triple Negative sub-populations are reduced as compared to the control, particularly when Activin is used in stages 3 and 4.
To determine the cell composition of the PEC population with the combination of Activin, Heregulin and Wnt during stage 3, flow cytometry was performed after stage 4 and the PEC cellular composition is shown in Table 14. […] Data from flow cytometry supports and is consistent with data from QPCR that the combination of the three factors (AHW) in general delayed or suppressed differentiation of cells committed to the endocrine lineage (CHGA+) in PEC without affecting the production of the non-endocrine (CHGA−) sub-population. The delayed expression of these genes in vitro is consistent with their on-set (or delay) in in vivo mammalian pancreatic development, whereby NGN3 expression in endocrine differentiation occurs after the on-set of PDX1 and NKX6.1 expression in the non-endocrine (CHGA−) sub-population. Additionally, there was no compromise in the PEC mass and yield. […]
Undifferentiated human ESC were expanded and differentiated substantially as described above in Table 17 Protocol #1 for stages 1-4 and in Schulz et al. (2012) supra, except that during the three (3) days of stage 3, 4 different conditions were compared: (i) 0 noggin (“no noggin”) for all 3 days; (ii) 1 day of Noggin at 50 ng/mL and 2 days with no additional Noggin; (iii) 2 days of Noggin at 50 ng/mL and 1 day with no additional noggin; and (iv) 3 days of Noggin at 50 ng/mL. After stage 3, each of these conditions (i) through (iv) then received the standard stage 4 differentiation media cocktail according to Table 8 and Table 17, but without additional Noggin. […] Moreover, with each additional day of noggin treatment, fewer non-endocrine multipotent pancreatic progenitor sub-populations were produced (compare 90.6% with no noggin to 64.6% with 3 days of noggin treatment).

For assay [5], the system named is SOX17 expression. The conditions noted are these: 1 μg/mL of insulin; cited from earlier work.
[6] abbreviates: 50 ng/mL of FGF2 for 2 days at stage 3.
Setting [7] is: 50 ng/mL of FGF2 for 3 days at stage 3.

As for `CC(C)(C(=O)NCC(F)(F)C(F)(F)F)C(=O)N[C@@H]1C(=O)Nc2ccccc2-c2ccccc21` [RO4929097, reference compound], in assay [1] (1 μM for 2 days at stage 5, day 15 versus day 13), the NGN3 expression result is recorded as “strongly induced NGN3 expression”.

Regarding `C/C(=C\c1ccc(C(=O)O)cc1)c1ccc2c(c1)C(C)(C)CCC2(C)C` [TTNPB, 4-[(E)-2-(5,6,7,8-Tetrahydro-5,5,8,8-tetramethyl-2-naphthalenyl)-1-propenyl]benzoic acid, reference compound], in assay [1] (0.5 nM alone at stages 6 & 7 or stage 7 alone), the PDX1 expression entry was “does not appear to increase PDX1 expression”.

In the case of `C[C@@H](N)[C@H]1CC[C@H](C(=O)Nc2ccncc2)CC1` [Y-27632], the “cell associations of re-aggregated endocrine cell aggregates” value in assay [2] is “capable of promoting tighter cell associations”.

As to `NC(=O)c1cccnc1` [nicotinamide, reference compound], the “increase in the INS/GCG expression ratio” value in assay [1] (stage 6 culture conditions, analyzed at day 21) is on record as 3 fold.

FGF1: acidic FGF: the pancreatic-lineage gene expression entry in assay [1] is “upregulated GCG and SST”.

Regarding FGF2: Fibroblast growth factor 2, the cell aggregate size result in assay [3] was “An increase in cell aggregate size was also observed”. In addition, in assay [4] (setting [6]), the “CHGA+ (Endocrine)” value worked out at 11.9%; the “CHGA− NKX6.1− PDX1− (Triple Negative/Residual Cells)” value is recorded as 9.15%; the “CHGA−, NKX6.1+, PDX1+ (Non-endocrine)” value turned out to be 79%. In addition, in assay [4] (setting [7]), the “CHGA+ (Endocrine)” value turned out to be 0.33%; the “CHGA− NKX6.1− PDX1− (Triple Negative/Residual Cells)” value is 22.7%; the “CHGA−, NKX6.1+, PDX1+ (Non-endocrine)” value was found to be 76.9%. Besides, the pancreatic-lineage gene expression result in assay [1] is recorded as “significant increase in SST expression”.

IGF2: Insulin-like growth factor II: the INS expression result in assay [1] (25 or 100 ng/mL from day 17 for about 3 days, stage 6, data not shown) is given as “more capable of inducing INS expression than IGF1”.

As for insulin, the “SOX17 expression is reduced” value in assay [5] is 4 fold.
